In ChEMBL document CHEMBL3885861, “Open TG-GATES”:

Species on record: Rattus norvegicus
Test: Open TG-GATES - Regimen: Daily Repeat
Format: toxicity, organism-based, Sprague-Dawley
Parameters: regimen Daily Repeat, gender Male, age 6 weeks
Conditions: in vivo, po, 2 mg/kg, route gavage, dose level Low; for APTT / Bas / Eos / Fbg / Hb / Ht / Lym / MCH / MCHC / MCV / Mono / Neu / PT / Plat / RBC / Ret / WBC: tissue Blood; for KIDNEY_L / KIDNEY_R / KIDNEY_TOTAL: tissue Kidney; for LIVER: tissue Liver; for ALP / ALT / AST / BUN / CRE / Ca / Cl / DBIL / GLC / IP / K / LDH / Na / PL / RALB / TBIL / TC / TG / TP / gamma-GTP: tissue Plasma

O=P1(N(CCCl)CCCl)NCCCO1 (stereo not drawn) [CYCLOPHOSPHAMIDE ANHYDROUS]
TERMINAL_BW (72 h, time 3 day): 217.7 g | APTT (72 h, time 3 day): 20.8 s | Bas (72 h, time 3 day): 0% | Eos (72 h, time 3 day): 1% | Fbg (72 h, time 3 day): 299.8 mg/dL | Hb (72 h, time 3 day): 13.3 g/dL | Ht (72 h, time 3 day): 40.1% | Lym (72 h, time 3 day): 79.8% | MCH (72 h, time 3 day): 21.3 pg | MCHC (72 h, time 3 day): 33.1% | MCV (72 h, time 3 day): 64.3 fL | Mono (72 h, time 3 day): 3% | Neu (72 h, time 3 day): 15% | PT (72 h, time 3 day): 16.5 s | Plat (72 h, time 3 day): 126.5 x10_4/uL | RBC (72 h, time 3 day): 624.6 x10_4/ul | Ret (72 h, time 3 day): 6.5% | WBC (72 h, time 3 day): 74.5 x10_2/uL | KIDNEY_L (72 h, time 3 day): 1 g | KIDNEY_R (72 h, time 3 day): 1 g | KIDNEY_TOTAL (72 h, time 3 day): 1.9 g | LIVER (72 h, time 3 day): 10.2 g | ALP (72 h, time 3 day): 1778.2 IU/L | ALT (72 h, time 3 day): 40.2 IU/L | AST (72 h, time 3 day): 67 IU/L | BUN (72 h, time 3 day): 17.8 mg/dL | CRE (72 h, time 3 day): 0.2 mg/dL | Ca (72 h, time 3 day): 10.8 mg/dL | Cl (72 h, time 3 day): 106 meq/L | DBIL (72 h, time 3 day): 0 mg/dL | GLC (72 h, time 3 day): 187.4 mg/dL | IP (72 h, time 3 day): 7.1 mg/dL | K (72 h, time 3 day): 4.1 meq/L | LDH (72 h, time 3 day): 164.8 IU/L | Na (72 h, time 3 day): 141.8 meq/L | PL (72 h, time 3 day): 160.8 mg/dL | RALB (72 h, time 3 day): 3.1 g/dL | TBIL (72 h, time 3 day): 0.012 mg/dL | TC (72 h, time 3 day): 78.2 mg/dL | TG (72 h, time 3 day): 121.6 mg/dL | TP (72 h, time 3 day): 5.6 g/dL | gamma-GTP (72 h, time 3 day): 1.2 IU/L | TERMINAL_BW ([…], time 7 day): 254.7 g | TERMINAL_BW ([…], time 14 day): 305.2 g | TERMINAL_BW ([…], time 28 day): 367.9 g | APTT ([…], time 7 day): 22.6 s | Bas ([…], time 7 day): 0% | Eos ([…], time 7 day): 0.6% | Fbg ([…], time 7 day): 282.6 mg/dL | Hb ([…], time 7 day): 13.3 g/dL | Ht ([…], time 7 day): 40.1% | Lym ([…], time 7 day): 80.8% | MCH ([…], time 7 day): 21.7 pg | MCHC ([…], time 7 day): 33.2% | MCV ([…], time 7 day): 65.3 fL | Mono ([…], time 7 day): 2.4% | Neu ([…], time 7 day): 15.4% | PT ([…], time 7 day): 16.8 s | Plat ([…], time 7 day): 130 x10_4/uL | RBC ([…], time 7 day): 613.8 x10_4/ul | Ret ([…], time 7 day): 5.8% | WBC ([…], time 7 day): 88.7 x10_2/uL | APTT ([…], time 14 day): 22.2 s | Bas ([…], time 14 day): 0% | Eos ([…], time 14 day): 0.8% | Fbg ([…], time 14 day): 315 mg/dL | Hb ([…], time 14 day): 13.9 g/dL | Ht ([…], time 14 day): 41% | Lym ([…], time 14 day): 82.6% | MCH ([…], time 14 day): 20.2 pg | MCHC ([…], time 14 day): 33.9% | MCV ([…], time 14 day): 59.7 fL | Mono ([…], time 14 day): 2.4% | Neu ([…], time 14 day): 13.2% | PT ([…], time 14 day): 14.8 s | Plat ([…], time 14 day): 121.1 x10_4/uL | RBC ([…], time 14 day): 687.8 x10_4/ul | Ret ([…], time 14 day): 4.7% | WBC ([…], time 14 day): 88.9 x10_2/uL | APTT ([…], time 28 day): 23.3 s | Bas ([…], time 28 day): 0% | Eos ([…], time 28 day): 1% | Fbg ([…], time 28 day): 302.6 mg/dL | Hb ([…], time 28 day): 14.7 g/dL | Ht ([…], time 28 day): 42.7% | Lym ([…], time 28 day): 78.4% | MCH ([…], time 28 day): 19.4 pg | MCHC ([…], time 28 day): 34.5% | MCV ([…], time 28 day): 56.1 fL | Mono ([…], time 28 day): 2.2% | Neu ([…], time 28 day): 17.2% | PT ([…], time 28 day): 16.4 s | Plat ([…], time 28 day): 98.2 x10_4/uL | RBC ([…], time 28 day): 761.2 x10_4/ul | Ret ([…], time 28 day): 2.6% | WBC ([…], time 28 day): 84.8 x10_2/uL | KIDNEY_L ([…], time 7 day): 1.1 g | KIDNEY_R ([…], time 7 day): 1.1 g | KIDNEY_TOTAL ([…], time 7 day): 2.3 g | KIDNEY_L ([…], time 14 day): 1.2 g | KIDNEY_R ([…], time 14 day): 1.2 g | KIDNEY_TOTAL ([…], time 14 day): 2.5 g | KIDNEY_L ([…], time 28 day): 1.3 g | KIDNEY_R ([…], time 28 day): 1.3 g | KIDNEY_TOTAL ([…], time 28 day): 2.6 g | LIVER ([…], time 7 day): 12 g | LIVER ([…], time 14 day): 13.3 g | LIVER ([…], time 28 day): 14.1 g | ALP ([…], time 7 day): 1581 IU/L | ALT ([…], time 7 day): 41.4 IU/L | AST ([…], time 7 day): 69.4 IU/L | BUN ([…], time 7 day): 16.6 mg/dL | CRE ([…], time 7 day): 0.2 mg/dL | Ca ([…], time 7 day): 10.9 mg/dL | Cl ([…], time 7 day): 105 meq/L | DBIL ([…], time 7 day): 0 mg/dL | GLC ([…], time 7 day): 184.6 mg/dL | IP ([…], time 7 day): 7.7 mg/dL | K ([…], time 7 day): 4.2 meq/L | LDH ([…], time 7 day): 193.6 IU/L | Na ([…], time 7 day): 143.2 meq/L | PL ([…], time 7 day): 158.2 mg/dL | RALB ([…], time 7 day): 3 g/dL | TBIL ([…], time 7 day): 0.02 mg/dL | TC ([…], time 7 day): 76.8 mg/dL | TG ([…], time 7 day): 137.2 mg/dL | TP ([…], time 7 day): 5.5 g/dL | gamma-GTP ([…], time 7 day): 3.6 IU/L | ALP ([…], time 14 day): 1389 IU/L | ALT ([…], time 14 day): 34.4 IU/L | AST ([…], time 14 day): 60.6 IU/L | BUN ([…], time 14 day): 18.2 mg/dL | CRE ([…], time 14 day): 0.2 mg/dL | Ca ([…], time 14 day): 10.7 mg/dL | Cl ([…], time 14 day): 107.2 meq/L | DBIL ([…], time 14 day): 0.002 mg/dL | GLC ([…], time 14 day): 174.4 mg/dL | IP ([…], time 14 day): 6.5 mg/dL | K ([…], time 14 day): 4.2 meq/L | LDH ([…], time 14 day): 141.4 IU/L | Na ([…], time 14 day): 142.8 meq/L | PL ([…], time 14 day): 150.4 mg/dL | RALB ([…], time 14 day): 3.1 g/dL | TBIL ([…], time 14 day): 0.022 mg/dL | TC ([…], time 14 day): 71.4 mg/dL | TG ([…], time 14 day): 145.6 mg/dL | TP ([…], time 14 day): 5.7 g/dL | gamma-GTP ([…], time 14 day): 2 IU/L | ALP ([…], time 28 day): 1055.8 IU/L | ALT ([…], time 28 day): 34.8 IU/L | AST ([…], time 28 day): 61.4 IU/L | BUN ([…], time 28 day): 18.2 mg/dL | CRE ([…], time 28 day): 0.2 mg/dL | Ca ([…], time 28 day): 10.3 mg/dL | Cl ([…], time 28 day): 105.8 meq/L | DBIL ([…], time 28 day): 0 mg/dL | GLC ([…], time 28 day): 175.2 mg/dL | IP ([…], time 28 day): 6.6 mg/dL | K ([…], time 28 day): 4 meq/L | LDH ([…], time 28 day): 131.6 IU/L | Na ([…], time 28 day): 144.2 meq/L | PL ([…], time 28 day): 141.8 mg/dL | RALB ([…], time 28 day): 3.1 g/dL | TBIL ([…], time 28 day): 0.02 mg/dL | TC ([…], time 28 day): 72.6 mg/dL | TG ([…], time 28 day): 138.4 mg/dL | TP ([…], time 28 day): 6.2 g/dL | gamma-GTP ([…], time 28 day): 1 IU/L
